Test results reported in patent publication EP4268810A1 (priority 2022, dated 2023).
Like-named read-outs stand apart in the source and are kept apart here.

Columns and labels:
in vitro [1] = settings: human, calu-3 cells, CC50 IncuCyte
Procedure: (§1) Calu-3 (40.000/well), Huh7.5 (10.000/well) and CaCo2 (10.000/well) cells were seeded in 96-well plates in DMEM-Media. The cells were treated with the drug compounds at the indicated concentrations, negative control (non-treated), DMSO control and positive control (50% DMSO treated) were added, and plates were then stored in the IncuCyte® at 37 °C, 5 % CO2 for 72h measuring every 3 hours cell confluency via phase channel with 10x objective. For Analysis IncuCyte® S3 Software was used.
(§2) Plates were then stored in the IncuCyte® measuring every 3 hours cell confluency.

icSARS-CoV-2-mNG [2] = settings: for Therapeutic range: CC50/IC50, CTG / Therapeutic range: CC50/IC50, IncuCyte / Therapeutic range: CC50/IC50, MTT: human, calu-3 cells
icSARS-CoV-2-mNG [3] = assay: microbe, parasite or virus in culture; settings: Severe acute respiratory syndrome coronavirus 2, Calu-3
icSARS-CoV-2-mNG [4] = test system: icSARS-CoV-2-mNG
Huh7.5 cells [5] = assay: Cell viability via live cell imaging (IncuCyte); settings: read-out: CC50 IncuCyte, 72h, cell confluency
Procedure: as §1, §2

in vitro [6] = settings: human, caco-2
Procedure: as §1, §2

Calu-3 cells [7] = settings: read-out: CC50 IncuCyte, 72h, cell confluency, 4320 min
Procedure: as §1, §2

[8] = test system: DENV type 2 reporter virus; assay: microbe, parasite or virus in culture; settings: Dengue virus
[9] = test system: DENV type 2 reporter virus
in vitro [10] = settings: human, huh7.5 cells, CC50 MTT
Calu-3 cells [11] = settings: read-out: CC50 MTT, 72h
Huh7.5 cells [12] = settings: read-out: CC50 MTT, 72h, 4320 min

SMILES	Therapeutic range: CC50/IC50, CTG (icSARS-CoV-2-mNG [2])	Therapeutic range: CC50/IC50, IncuCyte (icSARS-CoV-2-mNG [2])	Therapeutic range: CC50/IC50, MTT (icSARS-CoV-2-mNG [2])	IC50 (icSARS-CoV-2-mNG [3])	SARS-CoV-2 infection (infection rate, mNG+/Hoechst+ cells) (icSARS-CoV-2-mNG [4])	IC50 ([8]; Huh7.5, 24 h)	toxicity (staining of the nuclei, cell count) (icSARS-CoV-2-mNG [2])	further results
COc1[nH]c(=O)c(C(=O)C(C)CC(C)C(Cl)CCl)c(O)c1OC (centres unmarked) [Atpenin A5]	CTG: 1.72	IncuCyte: > 320	MTT: 24	0.5 µM	inhibited SARS-CoV-2 infection of the cell lines in a dose-dependent manner	0.27 µM	–	CC50 at 72 h (in vitro [1]; 72h, cell confluency): > 160 µM; CC50 (Huh7.5 cells [5]): 65 µM; CC50 at 72 h (in vitro [6]): > 60 µM; CC50 (Calu-3 cells [7]): > 80 µM; Therapeutic range: CC50/IC50, CTG ([9]; Dengue Virus in Huh7.5 cells, CC50 by CTG): CTG: 229.5; Therapeutic range: CC50/IC50, IncuCyte ([9]; Dengue Virus in Huh7.5 cells, CC50 by IncuCyte): IncuCyte: 240.7; Therapeutic range: CC50/IC50, MTT ([9]; Dengue Virus in Huh7.5 cells, CC50 by MTT): MTT: 375.2
CN(C)C(=N)N=C(N)N [Metformin]	–	–	–	459 µM	–	–	without any cytotoxicity	–
[H]/N=C(/N)N/C(=N/[H])NCCc1ccccc1 [Phenformin, phenformin]	CTG: 1306.4	IncuCyte: 867.1	MTT: 876.3	1.73 µM	inhibited SARS-CoV-2 infection of the cell lines in a dose-dependent manner	18.6 µM	without any toxicity	CC50 at 72 h (in vitro [1]): 1500 µM; CC50 at 72 h (in vitro [10]): 61 µM; CC50 (Calu-3 cells [11]): 1520 µM; CC50 (Huh7.5 cells [12]): 61.2 µM; IC50 ([8]; Huh7.5): 18.6 µM; Therapeutic range: CC50/IC50, CTG ([9]; human, huh7.5 cells): CTG: 109.2; Therapeutic range: CC50/IC50, IncuCyte ([9]; human, huh7.5 cells): IncuCyte: 59.9; Therapeutic range: CC50/IC50, MTT ([9]; human, huh7.5 cells): MTT: 3.3
CC(C)Cc1nn(C)c(=O)c2c(SCCCO)n(Cc3cccc4ccccc34)cc12 [SR13800]	–	–	–	–	–	–	–	toxicity (cell viability by Hoechst staining of the nucleus) (icSARS-CoV-2-mNG [4]): toxic
O[C@H]1[C@H](O)[C@@H](O)[C@H](O)[C@@H](O)[C@@H]1O [Scyllo-Inositol]	–	–	–	–	did not show any activity	–	–	–
